Reference: ChEMBL document CHEMBL1833945, “Synthesis and anticonvulsant activity of new N-Mannich bases derived from 5-cyclopropyl-5-phenyl- and 5-cyclopropyl-5-(4-chlorophenyl)-imidazolidine-2,4-diones” (Bioorg Med Chem, 2011)
The source made the active and inactive calls. No cut-off for these calls is given here.

Columns and labels:
Mus musculus [1] = experiment: Neurotoxicity in CF1 albino mouse assessed as impair in motor coordination at 300 mg/kg, ip after 0.5 hrs by rotarod test; type: toxicity, organism-based; set-up: dose 300 mg/kg, route intraperitoneal; conditions: in vivo
Mus musculus [2] = experiment: Anticonvulsant activity in CF1 albino mouse assessed as protection against subcutaneous pentylenetetrazole-induced seizures at 300 mg/kg, […] after 4 hrs; type: functional, organism-based; set-up: dose 300 mg/kg
Mus musculus [3] = experiment: Anticonvulsant activity in ip dosed CF1 albino mouse assessed as protection against maximal electroshock-induced seizures after 4 hrs; type: functional; conditions: read-out: MED
Mus musculus [4] = experiment: Anticonvulsant activity in CF1 albino mouse assessed as protection against maximal electroshock-induced seizures at 300 mg/kg, ip after 0.5 hrs; type: functional, organism-based; set-up: dose 300 mg/kg
Mus musculus [5] = experiment: Neurotoxicity in CF1 albino mouse assessed as impair in motor coordination at 300 mg/kg, ip after 4 hrs by rotarod test; type: toxicity, organism-based; set-up: dose 300 mg/kg, route intraperitoneal; conditions: in vivo
[6] = Lipophilicity, log P of compound; type: physicochemical; conditions: octanol/water
Mus musculus [7] = experiment: Neurotoxicity in ip dosed CF1 albino mouse assessed as minimum dose required to cause impair in motor coordination after 4 hrs by rotarod test; type: toxicity, organism-based; conditions: in vivo
Mus musculus [8] = experiment: Neurotoxicity in ip dosed CF1 albino mouse assessed as minimum dose required to cause impair in motor coordination after 0.5 hrs by rotarod test; type: toxicity, organism-based; conditions: in vivo
Mus musculus [9] = experiment: Anticonvulsant activity in ip dosed CF1 albino mouse assessed as protection against subcutaneous pentylenetetrazole-induced seizures after 0.5 hrs; type: functional; conditions: read-out: MED
Rattus norvegicus [10] = experiment: Neurotoxicity in Sprague-Dawley albino rat assessed as motor impairment at 50 mg/kg, po after 2 hrs by rotarod test; type: toxicity, organism-based; set-up: dose 50 mg/kg, route oral; conditions: in vivo
Mus musculus [11] = experiment: Anticonvulsant activity in ip dosed CF1 albino mouse assessed as protection against maximal electroshock-induced seizures after 0.5 hrs; type: functional; conditions: read-out: MED
Mus musculus [12] = experiment: Anticonvulsant activity in ip dosed CF1 albino mouse assessed as protection against subcutaneous pentylenetetrazole-induced seizures after 4 hrs; type: functional; conditions: read-out: MED
Rattus norvegicus [13] = experiment: Neurotoxicity in Sprague-Dawley albino rat assessed as motor impairment at 50 mg/kg, po after 1 hrs by rotarod test; type: toxicity, organism-based; set-up: dose 50 mg/kg, route oral; conditions: in vivo
Mus musculus [14] = experiment: Neurotoxicity in CF1 albino mouse assessed as minimum dose causing loss of righting reflex at 300 mg/kg, ip after 4 hrs by rotarod test; type: toxicity, organism-based; set-up: dose 300 mg/kg, route intraperitoneal; conditions: in vivo
Mus musculus [15] = experiment: Neurotoxicity in CF1 albino mouse assessed as loss of rotard grasping at 300 mg/kg, ip after 0.5 hrs by rotarod test; type: toxicity, organism-based; set-up: dose 300 mg/kg, route intraperitoneal; conditions: in vivo
Mus musculus [16] = experiment: Anticonvulsant activity in CF1 albino mouse assessed as protection against electrically-induced seizure at 100 mg/kg, ip after 0.25 hrs by 6Hz psychomotor seizure test; type: functional, organism-based; set-up: dose 100 mg/kg
Rattus norvegicus [17] = experiment: Neurotoxicity in Sprague-Dawley albino rat assessed as motor impairment at 50 mg/kg, po after 4 hrs by rotarod test; type: toxicity, organism-based; set-up: dose 50 mg/kg, route oral; conditions: in vivo
Rattus norvegicus [18] = experiment: Anticonvulsant activity in Sprague-Dawley albino rat assessed as protection against subcutaneous pentylenetetrazole-induced seizures at 50 mg/kg, po after 0.25 hrs; type: functional, organism-based; set-up: dose 50 mg/kg
Rattus norvegicus [19] = experiment: Neurotoxicity in Sprague-Dawley albino rat assessed as motor impairment at 50 mg/kg, po after 0.5 hrs by rotarod test; type: toxicity, organism-based; set-up: dose 50 mg/kg, route oral; conditions: in vivo
Rattus norvegicus [20] = experiment: Neurotoxicity in Sprague-Dawley albino rat assessed as motor impairment at 50 mg/kg, po after 0.25 hrs by rotarod test; type: toxicity, organism-based; set-up: dose 50 mg/kg, route oral; conditions: in vivo
Rattus norvegicus [21] = experiment: Anticonvulsant activity in Sprague-Dawley albino rat assessed as protection against maximal electroshock-induced seizures at 30 mg/kg, po after 0.25 hrs; type: functional, organism-based; set-up: dose 30 mg/kg
Mus musculus [22] = experiment: Toxicity in subcutaneous pentylenetetrazole-induced CF1 albino mouse assessed as myoclonic jerks at 100 mg/kg, ip after 0.5 hrs; type: organism-based; set-up: dose 100 mg/kg; conditions: in vivo, sc
Rattus norvegicus [23] = experiment: Anticonvulsant activity in Sprague-Dawley albino rat assessed as protection against maximal electroshock-induced seizures at 30 mg/kg, po after 0.5 hrs; type: functional, organism-based; set-up: dose 30 mg/kg
Rattus norvegicus [24] = experiment: Neurotoxicity in Sprague-Dawley albino rat assessed as motor impairment at 30 mg/kg, po after 0.5 hrs by rotarod test; type: toxicity, organism-based; set-up: dose 30 mg/kg, route oral; conditions: in vivo
Rattus norvegicus [25] = experiment: Neurotoxicity in Sprague-Dawley albino rat assessed as motor impairment at 30 mg/kg, po after 1 hrs by rotarod test; type: toxicity, organism-based; set-up: dose 30 mg/kg, route oral; conditions: in vivo
Rattus norvegicus [26] = experiment: Neurotoxicity in Sprague-Dawley albino rat assessed as motor impairment at 30 mg/kg, po after 2 hrs by rotarod test; type: toxicity, organism-based; set-up: dose 30 mg/kg, route oral; conditions: in vivo
Rattus norvegicus [27] = experiment: Neurotoxicity in Sprague-Dawley albino rat assessed as motor impairment at 30 mg/kg, po after 4 hrs by rotarod test; type: toxicity, organism-based; set-up: dose 30 mg/kg, route oral; conditions: in vivo
Mus musculus [28] = experiment: Toxicity in subcutaneous pentylenetetrazole-induced CF1 albino mouse assessed as myoclonic jerks at 300 mg/kg, ip after 4 hrs; type: organism-based; set-up: dose 300 mg/kg; conditions: in vivo, sc
Rattus norvegicus [29] = experiment: Neurotoxicity in Sprague-Dawley albino rat assessed as motor impairment at 30 mg/kg, po after 0.25 hrs by rotarod test; type: toxicity, organism-based; set-up: dose 30 mg/kg, route oral; conditions: in vivo
Rattus norvegicus [30] = experiment: Anticonvulsant activity in po dosed Sprague-Dawley albino rat assessed as protection against subcutaneous pentylenetetrazole-induced seizures; type: functional
[31] = Neurotoxicity in oral dosed Sprague-Dawley albino rat assessed as motor impairment by rotarod test; type: toxicity, organism-based; conditions: in vivo
Rattus norvegicus [32] = experiment: Anticonvulsant activity in po dosed Sprague-Dawley albino rat assessed as time to peak effect; type: functional
Mus musculus [33] = experiment: Anticonvulsant activity in CF1 albino mouse assessed as protection against electrically-induced seizure at 100 mg/kg, ip after 0.5 hrs by 6Hz psychomotor seizure test; type: functional, organism-based; set-up: dose 100 mg/kg
Rattus norvegicus [34] = organism: Rattus norvegicus; experiment: Protective index, ratio of TD50 for neurotoxicity in Sprague-Dawley albino rat to ED50 for inhibition of maximal electroshock-induced seizures in Sprague-Dawley albino rat; type: functional
Rattus norvegicus [35] = experiment: Anticonvulsant activity in po dosed Sprague-Dawley albino rat assessed as protection against maximal electroshock-induced seizures; type: functional
Rattus norvegicus [36] = experiment: Anticonvulsant activity in Sprague-Dawley albino rat assessed as protection against maximal electroshock-induced seizures at 30 mg/kg, po after 4 hrs; type: functional, organism-based; set-up: dose 30 mg/kg

Row | Compound | Activity (Mus musculus [1]) | Activity (Mus musculus [2]) | minimal effective dose (Mus musculus [3]) [mg/kg] | Activity (Mus musculus [4]) | Activity (Mus musculus [5]) | logP [6] | MTC (Mus musculus [7]) [mg/kg] | minimal effective dose (Mus musculus [9]) [mg/kg] | minimal effective dose (Mus musculus [11]) [mg/kg] | Activity (Rattus norvegicus [23]) | Activity (Rattus norvegicus [24]) | Activity (Rattus norvegicus [25]) | Activity (Rattus norvegicus [26]) | Activity (Rattus norvegicus [27]) | Activity (Mus musculus [28]) | Activity (Rattus norvegicus [29]) | ED50 (Rattus norvegicus [30]) [mg/kg] | TD50 [31] [mg/kg] | Time (Rattus norvegicus [32]) [h] | PI (Rattus norvegicus [34]) | other results
1 | O=C1NC(c2ccc(Cl)cc2)(C2CC2)C(=O)N1CN1CCc2ccccc2C1 (stereo not drawn) | Non-toxic | inactive | 300 | inactive | Non-toxic | 3.71 | – | – | – | – | – | – | – | – | – | – | – | – | – | – | –
2 | O=C(OCc1ccccc1)N1CCN(CN2C(=O)NC(c3ccc(Cl)cc3)(C3CC3)C2=O)CC1 (stereo not drawn) | – | inactive | 100 | inactive | – | 3.65 | 300 | – | – | – | – | – | – | – | – | – | – | – | – | – | MTC (Mus musculus [8]): 300 mg/kg
3 | O=C1NC(c2ccc(Cl)cc2)(C2CC2)C(=O)N1CN1CCOCC1 (stereo not drawn) | – | – | 100 | – | – | 2 | – | 100 | 100 | – | – | – | – | – | – | – | – | – | – | – | Activity (Rattus norvegicus [10]): Non-toxic; minimal effective dose (Mus musculus [12]): 300 mg/kg; Activity (Rattus norvegicus [13]): Non-toxic; Activity (Mus musculus [14]): Toxic; Activity (Mus musculus [15]): Toxic; Activity (Mus musculus [16]): inactive; Activity (Rattus norvegicus [17]): Non-toxic; Activity (Rattus norvegicus [18]): inactive; Activity (Rattus norvegicus [19]): Non-toxic; Activity (Rattus norvegicus [20]): Non-toxic
4 | O=C(c1ccccc1)N1CCN(CN2C(=O)NC(c3ccccc3)(C3CC3)C2=O)CC1 (stereo not drawn) | Non-toxic | – | 100 | – | Non-toxic | 2.17 | – | – | 100 | inactive | Non-toxic | Non-toxic | Non-toxic | Non-toxic | Toxic | Non-toxic | – | – | – | – | Activity (Rattus norvegicus [21]): inactive; Activity (Mus musculus [22]): Toxic
5 | O=C1NC(=O)C(c2ccc(Cl)cc2)(C2CC2)N1 (stereo not drawn) | Non-toxic | – | 300 | inactive | – | 2.63 | 300 | 300 | – | – | – | – | – | – | – | – | 85 | > 135 | 2 | – | Activity (Rattus norvegicus [10]): Non-toxic; minimal effective dose (Mus musculus [12]): 30 mg/kg; Activity (Rattus norvegicus [13]): Non-toxic; Activity (Mus musculus [16]): inactive; Activity (Rattus norvegicus [17]): Non-toxic; Activity (Rattus norvegicus [18]): inactive; Activity (Mus musculus [33]): inactive; Activity (Rattus norvegicus [19]): Non-toxic; Activity (Rattus norvegicus [20]): Non-toxic
6 | O=C1NC(c2ccccc2)(C2CC2)C(=O)N1CN1CCN(c2ccccc2)CC1 (stereo not drawn) | Non-toxic | inactive | 100 | inactive | Non-toxic | – | – | 100 | – | – | – | – | – | – | – | – | – | – | – | – | –
7 | CC(c1ccccc1)N1CCN(CN2C(=O)NC(c3ccccc3)(C3CC3)C2=O)CC1 (stereo not drawn) | Non-toxic | – | 100 | – | Non-toxic | 3.19 | – | – | 300 | – | Non-toxic | Non-toxic | Non-toxic | Non-toxic | Toxic | Non-toxic | < 100 | > 200 | 2 | >18.3 | ED50 (Rattus norvegicus [35]): 10.9 mg/kg
8 | O=C1NC(=O)C(c2ccccc2)(c2ccccc2)N1 [PHENYTOIN] | – | inactive | 30 | – | – | – | 100 | – | 30 | Active | Non-toxic | Non-toxic | Non-toxic | Non-toxic | – | Non-toxic | > 500 | > 1000 | 1 | >35.58 | MTC (Mus musculus [8]): 100 mg/kg
9 | O=C1NC(c2ccccc2)(C2CC2)C(=O)N1CN1CCN(CCc2ccccc2)CC1 (stereo not drawn) | Non-toxic | – | 30 | inactive | – | 2.98 | 300 | – | – | inactive | Non-toxic | Non-toxic | Non-toxic | Non-toxic | Toxic | Non-toxic | – | > 100 | 4 | >5.86 | Activity (Rattus norvegicus [21]): inactive; Activity (Rattus norvegicus [36]): Active; ED50 (Rattus norvegicus [35]): 17.1 mg/kg
